Laboratory results taken from patent publication US11318214B2, “Iron oxide mesoporous microparticle drug carrier” (National Guard Health Affairs, priority 2020, dated 2022).

Columns and labels:
[1] = In vitro drug release in PBS buffer at two pH values; format: physicochemical; conditions: from IO-MMM, slightly acidic pH of 4.5, after 48 h, 37° C.
Experimental: In a typical study, 5 mg of drug@IO-MMMs were suspended in 1 mL PBS buffer at two different pH values (pH=7.4 and pH=4.5) and gently rotated at 37° C. in an oven provided with a precise control in the temperature within 0.01° C. The concentration of drugs in the supernatant was determined at fixed time intervals by UV-vis spectroscopy. At specific time points, supernatant aliquots obtained by centrifugation were taken from each tube, measured and returned to their respective tubes after UV-vis measurements. The drug concentration could be directly calculated from the measured absorbance. Triplicate aliquots were run for each time interval, and average values plotted. The percent drug release was calculated using the equation below: % Drug Release=(Abs(t) of released drug/Abs(t0))×100.

[2] = Drug loading onto IO-MMMs (UV-vis); format: physicochemical; conditions: for amount of drug loaded / loading efficiency: maximal loading onto IO-MMMs; for loading efficiency: absorption spectroscopy
Experimental: 1 mL aqueous dispersion of IO-MMMs (1.0 mg/mL) and aqueous drug solutions (250 μg/mL) were gently shaken on a rotary shaker for 36 h to enable maximal drug loading. The particle dispersions were then isolated via centrifugation (4500 rpm, 10 min), washed repeatedly with water until no drug was detected in the supernatant by UV-vis, and finally redispersed in water to form stable aqueous dispersions of drug@IO-MMMs. In case of Tam and Daun loading, Tam was first loaded followed by Daun to afford Daun/Tam@IO-MMMs (165 μg/mL Tam; 235 μg/mL Daun). Loading efficiencies were determined by UV-Vis spectroscopy as depicted below. […] The loading efficiency was calculated as: Loading Efficiency=(W1/W0)×100, where W1 is the amount of drug loaded onto the particles, and W0 is the amount of drug in the initial solution. The amount of drug loaded onto IO-MMMs was calculated from the difference between the initial drug concentration and the drug concentration left in the supernatant.

[3] = estimated; cited from earlier work

total drug released [1]	amount of drug loaded [2]	loading efficiencies depending on the initial drug concentrations used ([2]; onto IO-MMMs)	SMILES	loading efficiency [2] [%]	molecular size [3] [nm]
about 40%	≤ 227 μg/mg of particles	–	COc1cccc2c1C(=O)c1c(O)c3c(c(O)c1C2=O)C[C@@](O)(C(=O)CO)C[C@@H]3O[C@H]1C[C@H](N)[C@H](O)[C@H](C)O1 [Dox, Doxorubicin]	–	~1.37
~80%	≤ 165 μg/mg of particles	66-83%	CC/C(=C(\c1ccccc1)c1ccc(OCCN(C)C)cc1)c1ccccc1 [Tam, Tamoxifen]	≤ 83	–

SMILES	total drug released [1]	amount of drug loaded [2]	loading efficiencies depending on the initial drug concentrations used ([2]; onto IO-MMMs)	loading efficiency [2] [%]	molecular size [3] [nm]
COc1cccc2c1C(=O)c1c(O)c3c(c(O)c1C2=O)C[C@@](O)(C(C)=O)C[C@@H]3O[C@H]1C[C@H](N)[C@H](O)[C@H](C)O1 [Daun, Daunorubicin]	~50%	≤ 235 μg/mg of particles	–	≤ 94	–
